Data published in the SangsterLogP compilation.

Test: method code SF, from DOI: 10.1021/jf00121a034

Compound	logP
CON(C)C(=O)Nc1ccccc1	1.29
CCCCCCCCCCCCOc1ccc(NC(=O)N(C)C)cc1	6.93
CON(C)C(=O)Nc1ccc([N+](=O)[O-])cc1	1.74
CON(C)C(=O)Nc1ccc(OCc2ccccc2)cc1	3.11
CCNc1ccc(NC(=O)N(C)OC)cc1	0.83
CON(C)C(=O)Nc1ccc(OCCCCOc2ccccc2)cc1	3.86
CON(C)C(=O)Nc1ccc(C(C)C)cc1	2.95
CC(C)c1ccc(NC(=O)N(C)C)cc1	2.87
CON(C)C(=O)Nc1cccc(C(F)(F)F)c1	2.64
CON(C)C(=O)Nc1cccc(F)c1	1.68
CON(C)C(=O)Nc1cccc(OCCCCOc2ccccc2)c1	3.86
CON(C)C(=O)Nc1ccc(CCCCc2ccccc2)cc1	5.15
CON(C)C(=O)Nc1ccc(N)cc1	-0.16
CON(C)C(=O)Nc1ccc(CCCc2ccccc2)cc1	4.67
CON(C)C(=O)Nc1cccc(OCC(=O)C23CC4CC(CC(C4)C2)C3)c1	3.79
CN(C)C(=O)Nc1cccc(N)c1	-0.1
CON(C)C(=O)Nc1ccc(F)cc1	1.46
CON(C)C(=O)Nc1cccc(CO)c1	0.62
CON(C)C(=O)Nc1ccc(C(C)=O)cc1	1.22
CON(C)C(=O)Nc1ccc(OCC(=O)C23CC4CC(C2)C4C3)c(Cl)c1 (configuration not stated)	4.48
CN(C)C(=O)Nc1cccc(OCCc2ccccc2)c1	3.39
CC(=O)c1cccc(NC(=O)N(C)C)c1	0.95
CCCCc1cccc(NC(=O)N(C)C)c1	3.23
CN(C)C(=O)Nc1cccc([N+](=O)[O-])c1	1.46
CCOC(=O)c1ccc(NC(=O)N(C)OC)cc1	2.24
CON(C)C(=O)Nc1ccc(C(=O)c2ccccc2)cc1	2.86
CON(C)C(=O)Nc1ccc(NS(C)(=O)=O)cc1	0.14

Results, then the compound that gave them:

logP	Compound
2.19	CON(C)C(=O)Nc1ccc(C=C(C#N)C#N)cc1
0.82	CON(C)C(=O)Nc1cccc(O)c1
0.51	CN(C)C(=O)Nc1cccc(O)c1
4.08	CON(C)C(=O)Nc1ccc(C2CCCCC2)cc1
5.35	CON(C)C(=O)Nc1ccc(CCCc2ccc(Cl)cc2)cc1
3.81	CON(C)C(=O)Nc1ccc(OCCc2ccc(C)cc2)cc1
3.21	CON(C)C(=O)Nc1cccc(C(C)(C)C)c1
4.46	CON(C)C(=O)Nc1ccc(OCCC2CCCCC2)cc1
6.54	CON(C)C(=O)Nc1ccc(CCCc2ccc(-c3ccccc3)cc2)cc1
3.83	CN(C)C(=O)Nc1ccc(C2CCCCC2)cc1
1.64	CON(C)C(=O)Nc1cccc([N+](=O)[O-])c1
3.53	CON(C)C(=O)Nc1ccc(OCC(=O)C23CC4CC(CC(C4)C2)C3)cc1
4.81	CON(C)C(=O)Nc1ccc(OCCc2cccc3ccccc23)cc1
2.59	CN(C)C(=O)Nc1ccc(C(=O)c2ccccc2)cc1
4.51	CON(C)C(=O)Nc1ccc(OC(C)CC2CCCCC2)cc1 (configuration not stated)
